According to ChEMBL document CHEMBL1133888, “Development and in vitro efficacy of novel MMP2 and MMP9 specific doxorubicin albumin conjugates” (Bioorg Med Chem Lett, 2001):

Experiment: Inhibitory effect against murine renal cell carcinoma cell line (RENCA cells) using a BrdU-incorporation assay
Type: functional, cell-based
Conditions: Mus musculus

For COc1cccc2c1C(=O)c1c(O)c3c(c(O)c1C2=O)C[C@@](O)(C(=O)CO)C[C@@H]3O[C@H]1C[C@H](N)[C@H](O)[C@H](C)O1 [DOXORUBICIN], which IC50 is on record?
Its IC50 is < 10 nM.
